Here are results for 24 molecules from patent US20070027184A1, “Multicyclic sulfonamide compounds as inhibitors of histone deacetylase for the treatment of disease” (KALYPSYS, INC., priority 2005, published 2007).

The structures appear in SMILES notation.

One series relates to HDAC in cells. Kind of series: Cellular IC50 (cellular histone hyperacetylation / differential cytotoxicity assays). Type of series: cell-based. The procedure: These two secondary assays evaluates a compound's ability to inhibit HDAC in cells by measuring cellular histone acetylation levels. The cytoblot facilitates quantitative EC50 information for cellular HDAC inhibition. Transformed cell lines (e.g. HeLa, A549, MCF-7) are cultured under standard media and culture conditions prior to plating.
Cells (approx. 2,500/well) are allowed to adhere 10-24 hours to wells of a 384-well Greiner PS assay plate in media containing 1-5% serum. Cells are treated with appropriate compound and specific concentrations for 0 to 24 hours. Cells are washed once with PBS (60 ul) and then fixed (95% ethanol, 5% acetic acid or 2% PFA) for 1 minute at RT (30 ul). Cells are blocked with 1% BSA for 1 hour and washed and stained with antibody (e.g. anti-Acetylated Histone H3, Upstate Biotechnology), followed by washing and incubation with an appropriate secondary antibody conjugated to HRP or fluorophore. For luminescence assays, signal is generated using Luminol substrate (Santa Cruz Biotechnology) and detected using an Aquest plate reader (Molecular Devices).
HDAC inhibitors display differential cytotoxicity toward certain transformed cell lines. Cells are cultured according to standard ATCC recommended conditions that are appropriate to each cell type. Compounds were tested for their ability to kill different cell types (normal and transformed) using the ATPlite luminescence ATP detection assay system (Perkin Elmer). Assays are run in either 384-well or 1536-well Greiner PS plates. Cells (30 ul or 5 ul, respectively) are dispensed using either multichannel pipette for 384-well plates, or proprietary Kalypsys bulk liquid dispenser for 1536-well plates. Compounds added using proprietary pin-transfer device (500 nL or 5 nL) and incubated 5 to 30 hours prior to analysis. Luminescence is measured using Aquest plate reader (Molecular Devices).

Another series relates to HDAC. Kind of series: In vitro HDAC-inhibition assay (Fluor de Lys). Format: biochemical. The procedure: This assay measures a compound's ability to inhibit acetyl-lysine deacetylation in vitro and was used as both a primary screening method as well as for IC50 determinations of confirmed inhibitors. The assay is performed in vitro using an HDAC enzyme source (e.g. partially purified nuclear extract or immunopurified HDAC complexes) and a proprietary fluorescent substrate/developer system (HDAC Quantizyme Fluor de Lys Fluorescent Activity Assay, BIOMOL). The assay is run in 1,536-well Greiner white-bottom plates using the following volumes and order of addition:
Step 1: Enzyme (2.5 ul) source added to plate (from refrigerated container)
Step 2: Compounds (50 nl) added with pin transfer device
Step 3: Fluor de Lys (2.5 ul) substrate added, incubate at RT, 30 minutes
Step 4: Developer (5 ul) solution is added (containing TSA), to stop reaction
Step 5: Plate Reader—data collection
The deacetylated fluorophore is excited with 360 nm light and the emitted light (460 nm) is detected on an automated fluorometric plate reader (Aquest, Molecular Devices).

A short description of a further series: in vivo. As to conditions: female, nude (nu/nu), mouse, in vivo, po. The procedure:
(§1) 5×10^6 HCT-116 colorectal cancer cells were injected subcutaneously into the right flank of 4-6 week old female nude (nu/nu) mice. […] Tumor burden was determined twice weekly by measurement with calipers in 2-dimensions (length (l)×width (w)) and the volume of spheroid calculated using the formula (l×(w)^2/2). Bodyweight was measured and recorded on same day as tumor volume measurement.

The test system of series [1] is HCT-116 colorectal cancer cells. Kind of series: in vivo. The protocol:
as §1

`CC(=O)SCC(=O)c1ccc(NS(=O)(=O)c2ccc3c(c2)ncn3C)nc1` [Example 2]: the IC50 in the series with HDAC in cells and with HDAC was at most 1 µM each time.
With `CC(=O)SCC(=O)c1ccc(NS(=O)(=O)c2ccc3c(c2)OCCO3)cn1` [Example 3, Thioacetic acid S-{2-[5-(2,3-dihydro-benzo[1,4]dioxine-6-sulfonylamino)-pyridin-2-yl]-2-oxo-ethyl}ester], the IC50 with HDAC in cells and in the series with HDAC was at most 1 µM throughout.
As for `CC(=O)SCC(=O)c1ccc(NS(=O)(=O)c2ccc3c(c2)CCO3)nc1` [Example 4, Thioacetic acid S-{2-[6-(2,3-dihydro-benzofuran-5-sulfonylamino)-pyridin-3-yl]-2-oxo-ethyl}ester], the IC50 (in general, the point on the concentration scale where inhibition reaches its midpoint) with HDAC in cells is at most 1 µM.
As for `CC(=O)SCC(=O)c1ccc(NS(=O)(=O)c2ccc3ncccc3c2)cc1` [Example 5, Thioacetic acid S-{2-oxo-2-[4-(quinoline-6-sulfonylamino)-phenyl]-ethyl}ester], the IC50 in the series on HDAC in cells and in the series with HDAC was at most 1 µM each time.
Regarding `CC(=O)SCC(=O)c1ccc(NS(=O)(=O)c2ccc3c(c2)OCO3)nc1` [Example 6, Thioacetic acid S-{2-[6-(benzo[1,3]dioxole-5-sulfonylamino)-pyridin-3-yl]-2-oxo-ethyl}ester], the IC50 with HDAC in cells and in the series on HDAC was at most 1 µM throughout.
Take `CC(=O)SCC(=O)c1cnc(NS(=O)(=O)c2ccc3c(c2)OCCO3)nc1` [Example 7, Thioacetic acid S-{2-[2-(2,3-dihydro-benzo[1,4]dioxine-6-sulfonylamino)-pyrimidin-5-yl]-2-oxo-ethyl}ester]: the IC50 is above 1 µM in the series on HDAC in cells and at most 1 µM in the series on HDAC.
For `O=C(CSSCC(=O)c1ccc(NS(=O)(=O)c2ccc3c(c2)OCCO3)nc1)c1ccc(NS(=O)(=O)c2ccc3c(c2)OCCO3)nc1` [Example 8, 2,3-Dihydro-benzo[1,4]dioxine-6-sulfonic acid [5-(2-mercapto-acetyl)-pyridin-2-yl]-amide disulfide], in that order: at most 1 µM and at most 1 µM.
Molecule `O=C(O)CCSCC(=O)c1ccc(NS(=O)(=O)c2ccc3c(c2)OCCO3)nc1` [Example 9, 3-{2-[6-(2,3-Dihydro-benzo[1,4]dioxine-6-sulfonylamino)-pyridin-3-yl]-2-oxo-ethylsulfanyl}propionic acid] displayed an IC50 in the series on HDAC above 1 µM.
Turning to `CN(C)CCSSCC(=O)c1ccc(NS(=O)(=O)c2ccc3c(c2)OCCO3)nc1` [Example 10, 2,3-Dihydro-benzo[1,4]dioxine-6-sulfonic acid {5-[2-(2-dimethylamino-ethyldisulfanyl)-acetyl]-pyridin-2-yl}-amide], the IC50 in the series with HDAC in cells and with HDAC was at most 1 µM each time.
`O=C(CS)c1ccc(NS(=O)(=O)c2ccc3c(c2)OCCO3)nc1` [Example 11, 2,3-Dihydro-benzo[1,4]dioxine-6-sulfonic acid[5-(2-mercapto-acetyl)-pyridin-2-yl]-amide]: the IC50 in the series with HDAC in cells and in the series on HDAC was at most 1 µM throughout.
As to `O=C(CSC(=O)c1ccccc1)c1ccc(NS(=O)(=O)c2ccc3c(c2)OCCO3)nc1` [Example 12, Thiobenzoic acid S-{2-[6-(2,3-dihydro-benzo[1,4]dioxine-6-sulfonylamino)-pyridin-3-yl]-2-oxo-ethyl}ester], the IC50 in the series with HDAC in cells and in the series with HDAC was at most 1 µM each time.
As for `NC(CSSCC(=O)c1ccc(NS(=O)(=O)c2ccc3c(c2)OCCO3)nc1)C(=O)O` (stereo not shown) [Example 13, 2-Amino-3-{2-[6-(2,3-dihydro-benzo[1,4]dioxine-6-sulfonylamino)-pyridin-3-yl]-2-oxo-ethyldisulfanyl}-propionic acid], the IC50 with HDAC in cells and with HDAC was at most 1 µM throughout.
Turning to `CC(=O)SCC(=O)c1ccc(NS(=O)(=O)c2ccc3c(c2)OCCN3C)nc1` [Example 14, Thioacetic acid S-{2-[6-(4-methyl-3,4-dihydro-2H-benzo[1,4]oxazine-7-sulfonylamino)-pyridin-3-yl]-2-oxo-ethyl}ester], the IC50 with HDAC in cells is at most 1 µM.
In the series on HDAC in cells, `CC(=O)SCC(=O)c1ccc(NS(=O)(=O)c2ccc3c(c2)OCCCO3)nc1` [Example 15, Thioacetic acid S-{2-[6-(3,4-dihydro-2H-benzo[b][1,4]dioxepine-7-sulfonylamino)-pyridin-3-yl]-2-oxo-ethyl}ester] showed an IC50 of at most 1 µM.
In the case of `CC(=O)SCC(=O)c1ccc(NS(=O)(=O)c2ccc3c(c2)OCC(C)(C)CO3)nc1` [Example 16, Thioacetic acid S-{2-[6-(3,3-dimethyl-3,4-dihydro-2H-benzo[b][1,4]dioxepine-7-sulfonylamino)-pyridin-3-yl]-2-oxo-ethyl}ester], the IC50 with HDAC in cells was at most 1 µM.
In the series on HDAC in cells, `CC(=O)SCC(=O)c1csc(NS(=O)(=O)c2ccc3c(c2)OCCO3)n1` [Example 17, Thioacetic acid S-{2-[2-(2,3-dihydro-benzo[1,4]dioxine-6-sulfonylamino)-thiazol-4-yl]-2-oxo-ethyl}ester] showed an IC50 above 1 µM.
In turn, `CC(=O)SCC(=O)c1cnc(NS(=O)(=O)c2ccc3c(c2)OCCO3)s1` [Example 18, Thioacetic acid S-{2-[2-(2,3-dihydro-benzo[1,4]dioxine-6-sulfonylamino)-thiazol-5-yl]-2-oxo-ethyl}ester] returned an IC50 with HDAC in cells of at most 1 µM.
On the same count and under the same terms, under `CC(=O)SCC(=O)c1ccc(NS(=O)(=O)c2ccc3nc(N4CCN(C)CC4)ccc3c2)nc1` [Example 19, Thioacetic acid S-(2-{6-[2-(4-methyl-piperazin-1-yl)-quinoline-6-sulfonylamino]-pyridin-3-yl}-2-oxo-ethyl)ester] stands at most 1 µM; under `CC(=O)SCC(=O)c1ccc(NS(=O)(=O)c2ccc3nc(N4CCCN(C)CC4)ccc3c2)nc1` [Example 20, Thioacetic acid S-(2-{6-[2-(4-methyl-[1,4]diazepan-1-yl)-quinoline-6-sulfonylamino]-pyridin-3-yl}-2-oxo-ethyl)ester], at most 1 µM; under `CC(=O)SCC(=O)c1ccc(NS(=O)(=O)c2ccc3nc(NCCN(C)C)ccc3c2)nc1` [Example 21, Thioacetic acid S-(2-{6-[2-(2-dimethylamino-ethylamino)-quinoline-6-sulfonylamino]-pyridin-3-yl}-2-oxo-ethyl)ester], at most 1 µM.
The molecule `CC(=O)SCC(=O)c1ccc(NS(=O)(=O)c2ccc3nc(NCCCN(C)C)ccc3c2)nc1` [Example 22, Thioacetic acid S-(2-{6-[2-(3-dimethylamino-propylamino)-quinoline-6-sulfonylamino]-pyridin-3-yl}-2-oxo-ethyl)ester] showed an IC50 with HDAC in cells of at most 1 µM.
In the case of `CC(=O)SCC(=O)c1ccc(NS(=O)(=O)c2ccc3nc(N(C)CCCN(C)C)ccc3c2)nc1` [Example 23, Thioacetic acid S-[2-(6-{2-[(3-dimethylamino-propyl)-methyl-amino]-quinoline-6-sulfonylamino}-pyridin-3-yl)-2-oxo-ethyl]ester], in the series with HDAC in cells, the IC50 is at most 1 µM.
As for `CC(=O)SCC(=O)c1ccc(NS(=O)(=O)c2ccc3nc(N(C)C)ccc3c2)nc1` [Example 24, Thioacetic acid S-{2-[6-(2-dimethylamino-quinoline-6-sulfonylamino)-pyridin-3-yl]-2-oxo-ethyl}ester], in the series with HDAC in cells, the IC50 is at most 1 µM.
Take `O=C(CCCCCCC(=O)Nc1ccccc1)NO` [SAHA, reference compound]: the MTD in the series “in vivo” is 250 mg/kg. Also, the T/C (in general, the ratio of treated to control) in series [1] (50 mg/kg QD orally, data from another study) worked out at 59%; in series [1] (100 mg/kg QD orally), 65%; in series [1] (125 mg/kg QD orally), 73%; in series [1] (175 mg/kg QD orally), 41%; in series [1] (250 mg/kg QD orally) it was 52%; in series [1] (350 mg/kg QD orally), 24%. This molecule displayed a T/C in series [1] (475 mg/kg QD orally) of 21%. The Lethality entry in series [1] (350 mg/kg daily oral gavage) is reported as “lethality was observed”. Moreover, the “T/C value for efficacy at MTD” value in series [1] (at MTD, daily oral gavage) is given as 52%.
